In assay [1] the test system is O-GlcNAc modified proteins in rat tissues. Nature of the assay: Oral availability: tissue O-GlcNAc levels in rats fed inhibitor in chow. The class given is in vivo. As for the experimental part:
To determine if the inhibitor 9c is orally available, it was incorporated into the chow (Lab Diet 5001 Rodent Diet, PMI Nutrition International, LLC). To make the rat chow, 600 g of the ground chow was mixed with 355 ml of water and 5 μL of the inhibitor dissolved in ethanol. Small pieces were then prepared with a pasta machine (Pasta Express, Creative) and dehydrated overnight at 37° C. (Snackmaster Dehydrator, American Harvest). Five sets of chow were made with the following amounts of inhibitor: 0 mg kg^−1 days^−1, 100 or 1000 mg kg^−1 days^−1 of the deprotected (polar) inhibitor, and 100 or 1000 mg kg^−1 day^−1 of the protected (non-polar) inhibitor. […] Ten five-week old healthy Sprague-Dawley rats (two per set of food) were then allowed to feed on the rat chow for three days. The animals were then sacrificed and tissues were collected, homogenized, and analyzed as described above.

Assay [2] has as its target T1, O-GlcNAcase (Homo sapiens, UniProt O60502).
T1 sequence (O60502 1-916): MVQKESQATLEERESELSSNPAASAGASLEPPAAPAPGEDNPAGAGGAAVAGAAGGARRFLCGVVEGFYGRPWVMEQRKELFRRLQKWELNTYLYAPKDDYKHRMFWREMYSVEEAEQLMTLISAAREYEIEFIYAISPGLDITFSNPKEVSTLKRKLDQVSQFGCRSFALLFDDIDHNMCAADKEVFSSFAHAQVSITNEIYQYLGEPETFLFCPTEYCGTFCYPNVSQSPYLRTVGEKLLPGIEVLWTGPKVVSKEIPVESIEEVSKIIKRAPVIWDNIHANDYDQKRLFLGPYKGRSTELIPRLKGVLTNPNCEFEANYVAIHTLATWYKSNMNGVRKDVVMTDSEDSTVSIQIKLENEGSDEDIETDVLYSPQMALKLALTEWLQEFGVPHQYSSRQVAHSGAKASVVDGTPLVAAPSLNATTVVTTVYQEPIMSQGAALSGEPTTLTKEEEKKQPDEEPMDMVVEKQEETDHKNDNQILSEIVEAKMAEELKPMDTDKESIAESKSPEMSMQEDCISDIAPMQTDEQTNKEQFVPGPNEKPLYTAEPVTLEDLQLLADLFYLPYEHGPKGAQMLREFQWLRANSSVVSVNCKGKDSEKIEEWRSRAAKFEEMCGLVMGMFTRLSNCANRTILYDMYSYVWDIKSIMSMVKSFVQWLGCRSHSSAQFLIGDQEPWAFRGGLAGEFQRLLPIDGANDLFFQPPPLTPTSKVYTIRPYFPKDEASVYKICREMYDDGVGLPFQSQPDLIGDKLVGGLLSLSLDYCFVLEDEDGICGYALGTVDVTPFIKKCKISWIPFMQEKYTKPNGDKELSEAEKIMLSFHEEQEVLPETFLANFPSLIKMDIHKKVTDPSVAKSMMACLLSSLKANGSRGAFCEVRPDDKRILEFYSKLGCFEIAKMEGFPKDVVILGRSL
The note with it: for Selectivity Ratio (β-Hex KI/O-GlcNAcase KI): Table 2.

Assay [3] deals with T1, O-GlcNAcase. Briefly: biochemical.
Assay [4] relates to human placental β-hexosaminidase. Briefly: Inhibition of β-hexosaminidase, substrate MU-GlcNAc (5), Dixon plots.
Assay [5] concerns the target T1, O-GlcNAcase. Briefly: Inhibition of O-GlcNAcase, substrate pNP-GlcNAc, Dixon plots. The note with it: for Selectivity Ratio (β-Hexosaminidase KI/O-GlcNAcase KI): Table 3.
For assay [6], the system named is human placental β-hexosaminidase. Nature of the assay: Inhibition of β-hexosaminidase, substrate pNP-GlcNAc, Dixon plots. Particulars: for Ki: read-out: β-Hexosaminidase KI, Table 3, substrate pNP-GlcNAc 0.5 mM, pH 4.25.
For another assay, the system named is human β-hexosaminidase. Briefly: Michaelis-Menten kinetics of β-hexosaminidase catalyzed hydrolysis of 4-methylumbelliferyl GlcNAc substrate analogues. The class given is biochemical. The note with it: 37° C., pH 4.25. From the text: These compounds were first tested with the lysosomal human β-hexosamindase since this enzyme is known to proceed via a mechanism involving anchimeric assistance (FIG. 2A). Although Michaelian saturation kinetics were not observed for all substrates (Table 1), Vmax[E]o/KM, which is proportional to the second order rate constant governing the enzyme catalyzed reaction, could be determined from the initial slope of the Michaelis-Menten plot (FIG. 2A Inset). […] As expected, decreasing the basicity of the carbonyl oxygen has a deleterious effect on catalysis.

In assay [7] the target is T1, O-GlcNAcase. Nature of the assay: Michaelis-Menten kinetics of O-GlcNAcase catalyzed hydrolysis of 4-methylumbelliferyl GlcNAc substrate analogues. The class given is biochemical. Particulars: 37° C., pH 6.5. From the text:
For O-GlcNAcase the value of Vmax[E]0/KM is also dependant on the extent of fluorine substitution but the slope is more shallow (ρ=−0.42±0.08, FIG. 2C).

Setting [8] is: rats fed inhibitor in food for three days.
Where [9] appears, read: read-out: β-Hexosaminidase KI, Table 2, substrate 5 at 0.64 mM, pH 4.25, Dixon plots.
Where [10] appears, read: read-out: KI, β-hexosaminidase, human lysosomal β-hexosaminidase.

Entries after “also recorded” stand apart in the source; their conditions may differ. Marks after values point to notes of the source that are not given here.

Turning to `CCCC1=N[C@@H]2[C@@H](OC(C)=O)[C@H](OC(C)=O)[C@@H](COC(C)=O)O[C@@H]2S1` [9c (protected), 3,4,6-tri-O-acetyl-1,2-dideoxy-2′-propyl-α-D-glucopyranoso-[2,1-d]-Δ2′-thiazoline], the “cellular levels of O-GlcNAc modified proteins in brain tissue, oral 100 mg/kg/day” value in assay [1] (rats fed inhibitor in chow for three days) is on record as “marked increases”. Besides, the “cellular levels of O-GlcNAc modified proteins in brain tissue, oral 1000 mg/kg/day” value in assay [1] (rats fed inhibitor in chow for three days, compared with 100 mg/kg/day) was “even greater”. Also, in assay [1] (setting [8]), the “O-GlcNAc modified proteins in brain, muscle, pancreas, fat and spleen, oral 100 mg kg^−1 day^−1 (FIG. 12 legend)” value is on record as “large increases”; the “O-GlcNAc modified proteins in tissues, oral 1000 mg kg^−1 days^−1 (FIG. 12 legend)” value is given as “slightly greater increases”.

For the compound `CCC1=N[C@@H]2[C@@H](O)[C@H](O)[C@@H](CO)O[C@@H]2S1` [Compound 9b, 1,2-dideoxy-2′-ethyl-α-D-glucopyranoso-[2,1-d]-Δ2′-thiazoline], at O-GlcNAcase [2], the “inhibition of O-GlcNAcase, in words” value is on record as “potent inhibitors”; the “selectivity for O-GlcNAcase over β-hexosaminidase, in words” value is “remarkable selectivity”; the “Selectivity Ratio (β-Hex KI/O-GlcNAcase KI)” value was found to be 270. At O-GlcNAcase [3], the Ki (as a rule, the equilibrium dissociation constant of an inhibitor or competing ligand from its target) came to 0.12 µM. Moreover, in assay [4], the “increase in KI for β-hexosaminidase compared to parent NAG-thiazoline (9a)” value is given as 460 fold. Besides, the Ki in assay [4] (setting [9]) was 32 µM.

For `CCCCC1=N[C@@H]2[C@@H](O)[C@H](O)[C@@H](CO)O[C@@H]2S1` [Compound 9d, 1,2-dideoxy-2′-butyl-α-D-glucopyranoso-[2,1-d]-Δ2′-thiazoline], at O-GlcNAcase [2], the “selectivity ratio for O-GlcNAcase over β-hexosaminidase” value came to 3100 fold and the “Selectivity Ratio (β-Hex KI/O-GlcNAcase KI)” value amounted to 3100. At O-GlcNAcase [3], this compound came in with a Ki of 1.5 µM. The Ki in assay [4] (setting [9]) came to 4600 µM.

`CCCCCC1=N[C@@H]2[C@@H](O)[C@H](O)[C@@H](CO)O[C@@H]2S1` [Compound 9e, 1,2-dideoxy-2′-pentyl-α-D-glucopyranoso-[2,1-d]-Δ2′-thiazoline]: the “Selectivity Ratio (β-Hex KI/O-GlcNAcase KI)” value at O-GlcNAcase [2] worked out at 100. Besides, the Ki at O-GlcNAcase [3] came to 57 µM; in assay [4] (setting [9]), 11000 µM.

As to `CC(C)C1=N[C@@H]2[C@@H](O)[C@H](O)[C@@H](CO)O[C@@H]2S1` [Compound 9f, 1,2-dideoxy-2′-isopropyl-α-D-glucopyranoso-[2,1-d]-Δ2′-thiazoline], on O-GlcNAcase [2], the “inhibition of O-GlcNAcase, in words” value is reported as “good inhibitors; also recorded: potent inhibitors”; the “selectivity for O-GlcNAcase over β-hexosaminidase, in words” value is “remarkable selectivity”; the “selectivity ratio for O-GlcNAcase over β-hexosaminidase” value was 700 fold; the “Selectivity Ratio (β-Hex KI/O-GlcNAcase KI)” value is 700. Also, the Ki on O-GlcNAcase [3] came out at 1.6 µM. Moreover, the Ki in assay [4] (setting [9]) amounted to 720 µM.

As to `CCC(=O)N[C@H]1C(=NOC(=O)Nc2ccccc2)O[C@H](CO)[C@@H](O)[C@@H]1O` [Compound 22a], on O-GlcNAcase [5], the Ki turned out to be 1.2 µM and the “Selectivity Ratio (β-Hexosaminidase KI/O-GlcNAcase KI)” value is 1. For the same compound, in assay [6], the “increase in KI for β-hexosaminidase compared to parent PUGNAc” value was 33 fold and the Ki is 1.2 µM.

Consider `CCCC(=O)N[C@H]1C(=NOC(=O)Nc2ccccc2)O[C@H](CO)[C@@H](O)[C@@H]1O` [Compound 22b, O-(2-deoxy-2-butamido-D-glucopyranosylidene)amino N-Phenylcarbamate], for which the Ki is 2.4 µM at O-GlcNAcase [5] and 26 µM in assay [6]. Further, at O-GlcNAcase [5], the “Selectivity Ratio (β-Hexosaminidase KI/O-GlcNAcase KI)” value is listed as 11.

As for `CCCCC(=O)NC1C(=NOC(=O)Nc2ccccc2)OC(CO)C(O)C1O` (stereo not shown) [Compound 22c], the Ki was determined as 40 µM on O-GlcNAcase [5] and 220 µM in assay [6]. For the same compound, the “Selectivity Ratio (β-Hexosaminidase KI/O-GlcNAcase KI)” value on O-GlcNAcase [5] worked out at 6.

For `CCCCCC(=O)N[C@H]1C(=NOC(=O)Nc2ccccc2)O[C@H](CO)[C@@H](O)[C@@H]1O` [Compound 22d, O-(2-deoxy-2-hexamido-D-glucopyranosylidene)amino N-Phenylcarbamate], at O-GlcNAcase [5], the inhibition constant Ki amounted to 210 µM and the “Selectivity Ratio (β-Hexosaminidase KI/O-GlcNAcase KI)” value is “≧5”. Besides, the Ki in assay [6] is above 900 µM.

With `CC(C)C(=O)N[C@H]1C(=NOC(=O)Nc2ccccc2)O[C@H](CO)[C@@H](O)[C@@H]1O` [Compound 22e, O-(2-deoxy-2-isobutamido-D-glucopyranosylidene)amino N-Phenylcarbamate], the Ki on O-GlcNAcase [5] is 9 µM; in assay [6], 20 µM. The “Selectivity Ratio (β-Hexosaminidase KI/O-GlcNAcase KI)” value on O-GlcNAcase [5] was determined as 2.

Regarding `CC(C)CC(=O)N[C@H]1C(=NOC(=O)Nc2ccccc2)O[C@H](CO)[C@@H](O)[C@@H]1O` [Compound 22f, O-(2-deoxy-2-isovaleramido-D-glucopyranosylidene)amino N-Phenylcarbamate], on O-GlcNAcase [5], the Ki was 190 µM and the “Selectivity Ratio (β-Hexosaminidase KI/O-GlcNAcase KI)” value is “≧6”. The Ki in assay [6] is above 1200 µM.

Take `CC(=O)N[C@H]1C(O)O[C@H](CO)[C@@H](O)[C@@H]1O` (stereo partly shown) [GlcNAc, N-acetylglucosamine, reference compound]: the “Selectivity Ratio (β-Hex KI/O-GlcNAcase KI)” value at O-GlcNAcase [2] worked out at 0.8. For the same compound, the Ki on O-GlcNAcase [3] stood at 1500 µM; in assay [4] (setting [10]), 1200 µM; in assay [4] (setting [9]), 1200 µM.

Regarding `CC(=O)N[C@H]1[C@H](Oc2ccc3c(C)cc(=O)oc3c2)O[C@H](CO)[C@@H](O)[C@@H]1O` [MuGlcNAc, reference compound], in the assay with human β-hexosaminidase, the Km (commonly the substrate concentration at which the rate is half of its maximum) is 880 ± 50 µM and the “Vmax [E]o” value came to 8.3 ± 0.2 µmol/min/mg. Further, at O-GlcNAcase [7], the Km stood at 430 ± 40 µM and the “Vmax [E]o” value was 0.74 ± 0.02 µmol/min/mg.

As to `Cc1cc(=O)oc2cc(O[C@@H]3O[C@H](CO)[C@@H](O)[C@H](O)[C@H]3NC(=O)CF)ccc12` [MuGlcNAc-F1, 4-Methylumbelliferyl 2-deoxy-2-fluoroacetamido-β-D-glucopyranoside], in the assay on human β-hexosaminidase, the Km was 3800 ± 400 µM and the “Vmax [E]o” value is recorded as 3.3 ± 0.2^b μmol min^−1 mg^−1. In addition, on O-GlcNAcase [7], the Km was found to be 490 ± 60 µM and the “Vmax [E]o” value came out at 0.60 ± 0.03 µmol/min/mg.

Consider `Cc1cc(=O)oc2cc(O[C@@H]3O[C@H](CO)[C@@H](O)[C@H](O)[C@H]3NC(=O)C(F)F)ccc12` [MuGlcNAc-F2, 4-Methylumbelliferyl 2-deoxy-2-difluoroacetamido-β-D-glucopyranoside], for which, at O-GlcNAcase [7], the Michaelis constant (Km) is 450 ± 50 µM and the “Vmax [E]o” value amounted to 0.16 ± 0.01 µmol/min/mg.

For the compound `Cc1cc(=O)oc2cc(O[C@@H]3O[C@H](CO)[C@@H](O)[C@H](O)[C@H]3NC(=O)C(F)(F)F)ccc12` [MuGlcNAc-F3, 4-Methylumbelliferyl 2-deoxy-2-trifluoroacetamido-β-D-glucopyranoside], at O-GlcNAcase [7], the Km was found to be 380 ± 30 µM and the “Vmax [E]o” value is 0.033 ± 0.001 µmol/min/mg.

Take `CC(=O)N[C@H]1/C(=N/OC(=O)Nc2ccccc2)O[C@H](CO)[C@@H](O)[C@@H]1O` [PUGNAc, O-(2-acetamido-2-deoxy-D-glucopyranosylidene)amino N-phenylcarbamate]: the Ki in assay [6], in assay [4] (setting [10]) and in assay [4] (setting [9]) was 0.036 µM throughout.

For the origin of these results see patent publication US20080287375A1, “Selective Glycosidase Inhibitors, Methods of Making Inhibitors, and Uses Thereof” (SIMON FRASER UNIVERSITY, priority 2005, published 2008).
